Patent US20240158446A1, “CYCLIC COMPOUND HAVING SELECTIVE INHIBITORY ACTION ON KRAS OVER HRAS AND NRAS” (CHUGAI SEIYAKU KABUSHIKI KAISHA, priority 2021, published 2024)

Assays:
[1] = molecular target: GDP-bound NRAS wild-type protein (Homo sapiens, UniProt P01111); test: Binding to NRAS by surface plasmon resonance (SPR), Single Cycle Kinetics; settings: for NRAS/KRAS (ratio of KD value with respect to GDP-bound NRAS wild-type protein to KD value with respect to KRAS): SPR KD ratio NRAS/KRAS, class symbols
[2] = molecular target: GDP-bound HRAS wild-type protein (Homo sapiens, UniProt P01112); test: Binding to HRAS by surface plasmon resonance (SPR), Single Cycle Kinetics; settings: for HRAS/KRAS (ratio of KD value with respect to GDP-bound HRAS wild-type protein to KD value with respect to KRAS): SPR KD ratio HRAS/KRAS, class symbols
[3] = SPR, GDP-bound NRAS wild-type protein vs GDP-bound KRAS wild-type protein
[4] = SPR, GDP-bound HRAS wild-type protein vs GDP-bound KRAS wild-type protein
[5] = SPR, GDP-bound NRAS wild-type protein vs GDP-bound KRAS wild-type protein, KD ratio class
[6] = SPR, GDP-bound HRAS wild-type protein vs GDP-bound KRAS wild-type protein, KD ratio class

GDP-bound NRAS wild-type protein, sequence (P01111 whole entry): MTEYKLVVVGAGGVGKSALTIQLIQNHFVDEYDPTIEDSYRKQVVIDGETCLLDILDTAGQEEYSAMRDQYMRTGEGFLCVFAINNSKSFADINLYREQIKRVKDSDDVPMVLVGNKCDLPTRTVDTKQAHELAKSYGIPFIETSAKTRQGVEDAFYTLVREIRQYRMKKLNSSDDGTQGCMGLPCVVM
GDP-bound HRAS wild-type protein, sequence (P01112 whole entry): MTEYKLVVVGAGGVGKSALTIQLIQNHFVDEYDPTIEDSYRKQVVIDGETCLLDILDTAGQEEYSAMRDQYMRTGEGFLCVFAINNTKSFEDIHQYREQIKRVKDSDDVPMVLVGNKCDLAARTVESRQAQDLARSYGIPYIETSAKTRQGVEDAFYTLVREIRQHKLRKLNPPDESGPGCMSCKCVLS

SMILES | NRAS/KRAS (ratio of KD value for NRAS to KD value for KRAS) [1, 3] | HRAS/KRAS (ratio of KD value for HRAS to KD value for KRAS) [2, 4] | other results
CCC[C@H]1C(=O)N[C@@H](C2CCCCC2)C(=O)N(C)CC(=O)N(C)[C@H]2C/C=C\CCN(C2=O)[C@@H](Cc2ccc(C)cc2)C(=O)N(C)CC(=O)N[C@@H](CCc2ccc(C(F)(F)F)c(Cl)c2)C(=O)N2C[C@H](OCC)C[C@H]2C(=O)NC2(CC(C)(C)C2)C(=O)N(C)[C@@H](CC(C)C)C(=O)N(C)[C@H](C(=O)N(C)C)CC(=O)N1C [PP3021] | AA (a compound having 20 or more is denoted as AA) | A (a compound having 10 or more and less than 20 is denoted as A) | 
CCC[C@H]1C(=O)N[C@@H](C2CCCC2)C(=O)N(C)CC(=O)N(C)[C@H]2C/C=C\CCN(C2=O)[C@@H](Cc2ccc(C)cc2)C(=O)N(C)CC(=O)N[C@@H](CCc2ccc(C(F)(F)F)c(Cl)c2)C(=O)N2C[C@H](OCC)C[C@H]2C(=O)NC2(CC(C)(C)C2)C(=O)N(C)[C@@H](CC(C)C)C(=O)N(C)[C@H](C(=O)N(C)C)CC(=O)N1C [PP2190] | A (a compound having 10 or more and less than 20 is denoted as A) | A (a compound having 10 or more and less than 20 is denoted as A) | 
CCO[C@@H]1C[C@H]2C(=O)NC3(CCC3)C(=O)N(C)[C@@H](C3CCCC3)C(=O)N(C)[C@H](C(=O)N3CCOCC3)CC(=O)N(C)[C@@H](CC(C)C)C(=O)N[C@@H]([C@@H](C)CC)C(=O)N3CC[C@H]3C(=O)N(C)[C@H]3C[C@@H](C)CCN(C3=O)[C@@H](Cc3ccc(C(F)(F)F)cc3)C(=O)N(C)CC(=O)N[C@@H](CCc3cc(F)c(C(F)(F)F)c(F)c3)C(=O)N2C1 [PP1026] | B (a compound having 3 or more and less than 10 is denoted as B) | B (a compound having 3 or more and less than 10 is denoted as B) | 
CC[C@H](C)[C@@H]1NC(=O)[C@H](CC(C)C)N(C)C(=O)C[C@@H](C(=O)N2CCOCC2)N(C)C(=O)[C@H](C2CCCC2)N(C)C(=O)C2(CCC2)NC(=O)[C@@H]2C[C@@H](OCC(F)F)CN2C(=O)[C@H](CCc2cc(F)c(C(F)(F)F)c(F)c2)NC(=O)CN(C)C(=O)[C@H](Cc2ccc(C(F)(F)F)cc2)N2CCCCC[C@@H](C2=O)N(C)C(=O)CN(C)C1=O [PP1006] | B (a compound having 3 or more and less than 10 is denoted as B) | B (a compound having 3 or more and less than 10 is denoted as B) | 
C=CC[C@@H]1NC(=O)[C@H](CC2CC2)N(C)C(=O)C[C@@H](C(=O)N(C)CC=C)N(C)C(=O)[C@H](C2CCCC2)N(C)C(=O)C2(CCC2)NC(=O)[C@@H]2C[C@@H](OCC)CN2C(=O)[C@H](CCc2cc(F)c(C(F)(F)F)c(F)c2)NC(=O)CN(C)C(=O)[C@H](Cc2ccc(C(F)(F)F)cc2)N2CC/C=C\C[C@@H](C2=O)N(C)C(=O)CN(C)C1=O [PP1557] |  |  | NRAS/KRAS (ratio of KD value for NRAS to KD value for KRAS) [1, 5]: A (a compound having 10 or more and less than 20 is denoted as A); HRAS/KRAS (ratio of KD value for HRAS to KD value for KRAS) [2, 6]: A (a compound having 10 or more and less than 20 is denoted as A)
CC[C@H](C)[C@@H]1NC(=O)[C@H](CC(C)C)N(C)C(=O)C[C@@H](C(=O)N2C3CCC2COC3)N(C)C(=O)[C@H](C2CCCC2)N(C)C(=O)C2(CCCC2)NC(=O)[C@@H]2CCCN2C(=O)[C@H](CCc2cc(F)c(C(F)(F)F)c(F)c2)NC(=O)CN(C)C(=O)[C@H](Cc2ccc(C(F)(F)F)cc2)N2CCCC[C@@H](C2=O)N(C)C(=O)CN(C)C1=O [PP0573] |  |  | NRAS/KRAS (ratio of KD value with respect to NRAS to KD value with respect to KRAS) [1, 3]: B (a compound having 3 or more and less than 10 is denoted as B); HRAS/KRAS (ratio of KD value with respect to HRAS to KD value with respect to KRAS) [2, 4]: B (a compound having 3 or more and less than 10 is denoted as B)
CCO[C@@H]1C[C@H]2C(=O)NC3(CCC3)C(=O)N(C)[C@@H](C3CCCC3)C(=O)N(C)[C@H](C)CC(=O)N(C)[C@@H](CC(C)C)C(=O)N[C@@H]([C@@H](C)CC)C(=O)N(C)CC(=O)N(C)[C@H]3C/C=C\CCN(C3=O)[C@@H](Cc3ccc(F)cc3)C(=O)N(C)CC(=O)N[C@@H](CCc3cc(F)c(C(F)(F)F)c(F)c3)C(=O)N2C1 [PP1494] |  |  | NRAS/KRAS (ratio of KD value for NRAS to KD value for KRAS) [1, 5]: B (a compound having 3 or more and less than 10 is denoted as B); HRAS/KRAS (ratio of KD value for HRAS to KD value for KRAS) [2, 6]: B (a compound having 3 or more and less than 10 is denoted as B)
CCC[C@H]1C(=O)N[C@@H]([C@@H](C)CC)C(=O)N(C)CC(=O)N(C)[C@H]2C/C=C\CCN(C2=O)[C@@H](Cc2ccc(C(F)(F)F)cc2)C(=O)N(C)CC(=O)N[C@@H](CCc2cc(Cl)c(C(F)F)c(Cl)c2)C(=O)N2C[C@H](OCC)C[C@H]2C(=O)NC2(CC(C)(C)C2)C(=O)N(C)[C@@H](C2CCCC2)C(=O)N(C)[C@H](C(=O)N(C)C)CC(=O)N1C [PP2865] |  |  | NRAS/KRAS (ratio of KD value with respect to GDP-bound NRAS wild-type protein to KD value with respect to KRAS) [1]: A (a compound having 10 or more and less than 20 is denoted as A); HRAS/KRAS (ratio of KD value with respect to GDP-bound HRAS wild-type protein to KD value with respect to KRAS) [2]: A (a compound having 10 or more and less than 20 is denoted as A)
CCC[C@H]1C(=O)N[C@@H]([C@@H](C)CC)C(=O)N(C)CC(=O)N(C)[C@H]2C/C=C\CCN(C2=O)[C@@H](Cc2ccc(C)cc2)C(=O)N(C)CC(=O)N[C@@H](CCc2cc(Cl)c3c(ccn3C)c2)C(=O)N2C[C@H](OCC)C[C@H]2C(=O)NC2(CC(C)(C)C2)C(=O)N(C)[C@@H](C2CCCC2)C(=O)N(C)[C@H](C(=O)N(C)C)CC(=O)N1C [PP2951] |  |  | NRAS/KRAS (ratio of KD value with respect to GDP-bound NRAS wild-type protein to KD value with respect to KRAS) [1]: A (a compound having 10 or more and less than 20 is denoted as A); HRAS/KRAS (ratio of KD value with respect to GDP-bound HRAS wild-type protein to KD value with respect to KRAS) [2]: A (a compound having 10 or more and less than 20 is denoted as A)
CCC[C@H]1C(=O)N[C@@H]([C@@H](C)CC)C(=O)N(C)CC(=O)N(C)[C@H]2C/C=C\CCN(C2=O)[C@@H](Cc2ccc(C(F)(F)F)cc2)C(=O)N(C)CC(=O)N[C@@H](CCc2cc(C)c(C(F)F)c(F)c2)C(=O)N2C[C@H](OCC)C[C@H]2C(=O)NC2(CC(C)(C)C2)C(=O)N(C)[C@@H](C2CCCC2)C(=O)N(C)[C@H](C(=O)N(C)C)CC(=O)N1C [PP2860] |  |  | NRAS/KRAS (ratio of KD value with respect to GDP-bound NRAS wild-type protein to KD value with respect to KRAS) [1]: A (a compound having 10 or more and less than 20 is denoted as A); HRAS/KRAS (ratio of KD value with respect to GDP-bound HRAS wild-type protein to KD value with respect to KRAS) [2]: A (a compound having 10 or more and less than 20 is denoted as A)
CC[C@H](C)[C@@H]1NC(=O)[C@H](CC2CC2)N(C)C(=O)C[C@@H](C(=O)N2CCCC2)N(C)C(=O)[C@H](C2CCCC2)N(C)C(=O)C2(CCCC2)NC(=O)[C@@H]2C[C@@H](C(F)(F)F)CN2C(=O)[C@H](CCc2cc(F)c(C(F)(F)F)c(F)c2)NC(=O)CN(C)C(=O)[C@H](Cc2ccc(F)cc2)N2CC/C=C\C[C@@H](C2=O)N(C)C(=O)CN(C)C1=O [PP1509] |  |  | NRAS/KRAS (ratio of KD value for NRAS to KD value for KRAS) [1, 5]: A (a compound having 10 or more and less than 20 is denoted as A); HRAS/KRAS (ratio of KD value for HRAS to KD value for KRAS) [2, 6]: A (a compound having 10 or more and less than 20 is denoted as A)
CCC[C@H]1C(=O)N[C@@H]([C@@H](C)CC)C(=O)N(C)CC(=O)N(C)[C@H]2C/C=C\CCN(C2=O)[C@@H](Cc2ccc(C)cc2)C(=O)N(C)CC(=O)N[C@@H](CCc2ccc(C(F)(F)F)c(OC)c2)C(=O)N2C[C@H](OCC)C[C@H]2C(=O)NC2(CC(C)(C)C2)C(=O)N(C)[C@@H](CC(C)C)C(=O)N(C)[C@H](C(=O)N(C)C)CC(=O)N1C [PP3008] | A (a compound having 10 or more and less than 20 is denoted as A) | A (a compound having 10 or more and less than 20 is denoted as A) | 
CC[C@H](C)[C@@H]1NC(=O)[C@H](CC(C)C)N(C)C(=O)C[C@@H](C(=O)N2CCOCC2)N(C)C(=O)[C@H](C2CCCC2)N(C)C(=O)C2(CCC2)NC(=O)[C@@H]2C[C@@H](OCC3CC3)CN2C(=O)[C@H](CCc2cc(F)c(C(F)(F)F)c(F)c2)NC(=O)CN(C)C(=O)[C@H](Cc2ccc(C(F)(F)F)cc2)N2CCCC[C@@H](C2=O)N(C)C(=O)CN(C)C1=O [PP1000] | B (a compound having 3 or more and less than 10 is denoted as B) | B (a compound having 3 or more and less than 10 is denoted as B) | 
CCC[C@H]1C(=O)N[C@@H](C2CCC2)C(=O)N(C)CC(=O)N(C)[C@H]2C/C=C\CCN(C2=O)[C@@H](Cc2ccc(C)cc2)C(=O)N(C)CC(=O)N[C@@H](CCc2ccc(C(F)(F)F)c(F)c2)C(=O)N2C[C@H](OCC)C[C@H]2C(=O)NC2(CC(C)(C)C2)C(=O)N(C)[C@@H](C2CCC2)C(=O)N(C)[C@H](C(=O)N(C)C)CC(=O)N1C [PP2242] | A (a compound having 10 or more and less than 20 is denoted as A) | A (a compound having 10 or more and less than 20 is denoted as A) | 
CCO[C@@H]1C[C@H]2C(=O)NC3(CC(C)(C)C3)C(=O)N(C)[C@@H](C(CC)CC)C(=O)N(C)[C@H](C(=O)N(C)C)CC(=O)N(C)[C@@H](CC3CC3)C(=O)N[C@@H]([C@@H](C)CC)C(=O)N(C)CC(=O)N(C)[C@H]3C/C=C\CCN(C3=O)[C@@H](Cc3ccc(C)cc3)C(=O)N(C)CC(=O)N[C@@H](CCc3ccc(C(F)(F)F)c(Cl)c3)C(=O)N2C1 [PP2142] | AA (a compound having 20 or more is denoted as AA) | A (a compound having 10 or more and less than 20 is denoted as A) | 
CCOC[C@H]1C(=O)N[C@@H]([C@@H](C)CC)C(=O)N(C)CC(=O)N(C)[C@H]2C/C=C\CCN(C2=O)[C@@H](Cc2ccc(C(C)(F)F)cc2)C(=O)N(C)CC(=O)N[C@@H](CCc2ccc(C(F)(F)F)c(OC)c2)C(=O)N2C[C@@H](C)C[C@H]2C(=O)NC2(CC(C)(C)C2)C(=O)N(C)[C@@H](C2CCCC2)C(=O)N(C)[C@H](C(=O)N(C)CC)CC(=O)N1C [PP2699] |  |  | NRAS/KRAS (ratio of KD value with respect to GDP-bound NRAS wild-type protein to KD value with respect to KRAS) [1]: A (a compound having 10 or more and less than 20 is denoted as A); HRAS/KRAS (ratio of KD value with respect to GDP-bound HRAS wild-type protein to KD value with respect to KRAS) [2]: B (a compound having 3 or more and less than 10 is denoted as B)
